Measured values reported in patent US12370235B2, “Synthetic, non-natural antimicrobial peptides inspired by Staphylococcus auricularis delta toxin” (University of Saskatchewan, priority 2021, dated 2025).
Values after ≈ are worked out from the molar mass of the structure shown. Square brackets hold non-standard residues; d marks the D form. Ends that are not written are not given here. Peptide text beside a SMILES is read from it.

What was measured:
[1] = Circular dichroism spectroscopy; assay type: physicochemical; settings: CD, 50% (v/v) TFE
Summary of the method: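 Secondary structure of peptides dissolved in water at 0.3–0.5 mg/mL was assessed by CD. Spectra were recorded from 180 to 260 nm at room temperature in a 0.1 cm quartz cuvette; water and 50% (v/v) TFE conditions were compared.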

[2] = tested on: S. aureus ATCC 33592 (MRSA SCCmec type III); assay: MIC, broth dilution; assay type: cell-based, Staphylococcus aureus; settings: Table 5; STIP3 variants, highest concentration 100 μg/mL
Summary of the method: (§1)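 Peptides (95% purity) were serially diluted 2-fold and mixed with bacteria diluted to OD 6×10^−4 in cation-adjusted Mueller Hinton broth. Standing cultures were incubated overnight at 37° C. MIC was the lowest peptide concentration with no observed growth.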

S. aureus ATCC 29213 [3] = assay: MIC, broth dilution; assay type: cell-based, Staphylococcus aureus; settings: for MIC S. aureus ATCC 29213: Table 5, STIP3 variants, highest concentration 100 μg/mL; for MIC (μg/mL) S. aureus: liquid broth
Summary of the method: as §1

C. albicans Y537 = assay: MIC, YPD broth; assay type: cell-based, Candida albicans; settings: Table 8
C. albicans MYA-2876 = assay: MIC, YPD broth; assay type: cell-based, Candida albicans; settings: Table 8
Summary of the method: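 Minimum inhibitory concentrations against Candida albicans were determined in YPD broth (10 g/L yeast extract, 20 g/L peptone, 20 g/L dextrose) using peptides of 95% purity. A 180 μl volume of diluted yeast was combined with 20 μl of peptide in a 2-fold dilution series in 96-well plates, with sterile water as control, then incubated standing overnight at 37° C.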

[4] = tested on: S. aureus / MRSA (ATCC MP-2 panel); assay type: cell-based, Staphylococcus aureus
Procedure: In order to begin to characterize STIP3-1 and potential sites amenable to modification, an alanine scanning experiment was performed. A total of 16 peptides with single alanine substitutions were assessed to inform on the importance of individual residues to antimicrobial activity. […] Next a series of thirty STIP3-1 variants were designed, guided by the aforementioned alanine scan and a previous report that the central α-helical core of the S. aureus δ-toxin could be converted into AMP through the inclusion of additional lysine residues^39. The collection included ten members with single substitutions relative to STIP3-1 and others that incorporated a number of changes that were designed to increase overall and local cationic charge as well as hydrophobic character (Table 5). Each of the STIPs was screened, including STIP3-1 to STIP-31, for antibiotic activity against a methicillin-sensitive S. aureus test organism and a panel of 7 MRSA strains defined by distinct SCCmec genotypes (FIG. 2; ATCC MP-2).
(§2) Determination of minimum inhibitory concentrations. The MICs were measured for bioactive peptides identified from the initial screen. For bacterial studies, cation-adjusted Mueller Hinton (MH) broth was used as the growth medium whereas YPD was used for C. albicans. Bacterial cultures were diluted to a OD value of 6×10^−4 in MH broth and a 180 μl volume was mixed with 20 μl of peptide arrayed as 2-fold dilution series in a 96-well plate. For the positive control, 20 μl of sterile water was used. Plates were incubated as standing cultures overnight at 37° C. The lowest peptide concentration that resulted no observed microbial growth after an overnight treatment was defined as the MIC.

M. luteus ATCC 4698 = assay: MIC, broth dilution; assay type: cell-based, Micrococcus luteus; settings: Table 4; liquid broth
Procedure: MIC determination. MICs were measured using peptides with 95% purity. For bacterial studies, cation-adjusted Mueller Hinton (MH) broth was used as the growth medium whereas Yeast Peptone Dextrose (YPD; 10 g/L yeast extract, 20 g/L peptone, 20 g/L dextrose) was used for Candida spp. and other yeast. Microorganisms were diluted to an optical density of […] in MH or YPD broth and a 180 μl volume was mixed with 20 μl of peptide arrayed as a 2-fold dilution series in a flat-bottom 96-well microtitre plate. A control was performed using 20 μl of sterile water. Plates were incubated as standing cultures overnight at 37° C.
as §2

S. aureus ATCC 29213 [5] = assay: Spot-on-lawn assay; assay type: cell-based, Staphylococcus aureus; settings: 50 μg peptide spotted on agar
Procedure: Spot-on-lawn assay. For the initial screen, peptides of ≥70% purity were used. Each peptide was resuspended in sterile water to a concentration of 10 mg/ml. To determine antimicrobial activities a spot-on-lawn assay was performed. M. luteus and S. aureus were used as indicator strains. To prepare test organisms, the optical density (OD) of overnight cultures were measured and the organisms were diluted to an initial OD of 0.05 in soft nutrient agar (0.4% w/v) at 50° C. Next, 3 mL of soft agar containing a test organism was overlaid on a solid 1.5% w/v nutrient agar plate (LB). A total of 50 μg of each peptide was spotted on the inoculated surface and plates were incubated for 16 to 48 h before being examined for zones of inhibition.
SspA protease treatment. SspA protease was resuspended at 2 mg/mL in 100 mM HEPES, pH 7.8. Proteolysis was achieved by incubation of 50 μg PSMs at 37° C. for ˜5 hours with 0.2 mg/mL SspA. The antimicrobial activity of the proteolytic products were assayed by spotting a 5 μL (˜45 μg) from each treated peptide on each test microorganism as described above.

[6] = tested on: Mannheimia haemolytica ATCC 33393; assay: MIC, broth dilution; assay type: cell-based
Summary of the method: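 Peptides (95% purity) in 2-fold dilution series were mixed with M. haemolytica diluted to OD 6×10^−4 in cation-adjusted Mueller Hinton broth and incubated standing overnight at 37 °C. MIC was the lowest concentration with no visible growth.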

Candida krusei AR 397 = assay: MIC, YPD broth, CDC and FDA AR Candida isolate panel; assay type: cell-based; settings: Table 9 top part: titrations from 1.56 to 100 μg/mL
Summary of the method: (§3)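 Inhibitory concentration was assigned over a 2-fold peptide dilution range after incubation without shaking at 37° C overnight; inoculum was set to optical density […] and water-only wells served as control.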

Kodamae ohmeri AR 396 = assay: as above; assay type: cell-based; settings: Table 9 top part: titrations from 1.56 to 100 μg/mL
Summary of the method: as §3

[7] = tested on: Candida duobushaemulonii AR 392; assay: as above; assay type: cell-based; settings: Table 9 top part: titrations from 1.56 to 100 μg/mL
Summary of the method: as §3

[8] = tested on: Saccharomyces cerevisiae AR 400; assay: as above; assay type: cell-based; settings: Table 9 top part: titrations from 1.56 to 100 μg/mL
Summary of the method: as §3

[9] = tested on: Saccharomyces cerevisiae AR 399; assay: as above; assay type: cell-based; settings: Table 9 top part: titrations from 1.56 to 100 μg/mL
Summary of the method: as §3

[10] = tested on: S. aureus ATCC BAA-42 (MRSA SCCmec type VI); assay: MIC, broth dilution; assay type: cell-based, Staphylococcus aureus; settings: Table 5; STIP3 variants, highest concentration 100 μg/mL
Summary of the method: as §1

[11] = tested on: S. aureus ATCC BAA-1683 (MRSA SCCmec type IV); assay: MIC, broth dilution; assay type: cell-based, Staphylococcus aureus; settings: Table 5; STIP3 variants, highest concentration 100 μg/mL
Summary of the method: as §1

[12] = tested on: S. aureus ATCC BAA-2313 (MRSA SCCmec type XI); assay: MIC, broth dilution; assay type: cell-based, Staphylococcus aureus; settings: Table 5; STIP3 variants, highest concentration 100 μg/mL
Summary of the method: as §1

[13] = tested on: S. aureus ATCC BAA-2094 (MRSA SCCmec type V); assay: MIC, broth dilution; assay type: cell-based, Staphylococcus aureus; settings: Table 5; STIP3 variants, highest concentration 100 μg/mL
Summary of the method: as §1

[14] = tested on: S. aureus ATCC BAA-41 (MRSA SCCmec type II); assay: MIC, broth dilution; assay type: cell-based, Staphylococcus aureus; settings: Table 5; STIP3 variants, highest concentration 100 μg/mL
Summary of the method: as §1

[15] = tested on: S. aureus ATCC BAA-44 (MRSA SCCmec type I); assay: MIC, broth dilution; assay type: cell-based, Staphylococcus aureus; settings: Table 5; STIP3 variants, highest concentration 100 μg/mL
Summary of the method: as §1

Row | Molecule | MIC (μg/mL) M. luteus (M. luteus ATCC 4698) | inhibition of S. aureus, spot-on-lawn (S. aureus ATCC 29213 [5]) | MIC (μg/mL) S. aureus (S. aureus ATCC 29213 [3]; Table 4) | MIC (μg/mL) M. haemolytica ([6]; Table 10, liquid broth) | MIC (μg/mL) S. aureus (S. aureus ATCC 29213 [3]; Table 10) | also measured
1 | CC[C@H](C)[C@H](NC(=O)[C@H](Cc1c[nH]c2ccccc12)NC(=O)[C@H](CCCCN)NC(=O)[C@@H](NC(=O)[C@H](CC(C)C)NC(=O)CNC(=O)CNC(=O)[C@@H](NC(=O)[C@@H](N)[C@@H](C)O)C(C)C)C(C)C)C(=O)N[C@@H](CC(C)C)C(=O)N[C@H](CCCCN)C(=O)N[C@H](C(=O)N[C@H](C(=O)N[C@@H](CCCCN)C(=O)N[C@@H](CCCCN)C(=O)N[C@@H](Cc1ccccc1)C(=O)N[C@@H](C)C(N)=O)C(C)C)[C@@H](C)O [STIP3-29-D1, TVGGLVKWILKTVKKFA-NH2] (H-TVGGLVKWIL[dK]TVKKFA-NH2; N-terminus assumed) |  |  |  |  |  | α helicity (%) [1]: 51%; MIC S. aureus ATCC 33592 (III) [2]: 25 µg/mL (≈ 13.2 µM); MIC S. aureus ATCC 29213 (S. aureus ATCC 29213 [3]): 12.5 µg/mL (≈ 6.62 µM); MIC C. albicans Y537 (C. albicans Y537): 25 µg/mL (≈ 13.2 µM); MIC C. albicans MYA-2876 (C. albicans MYA-2876): 12.5 µg/mL (≈ 6.62 µM); fold increase of MIC relative to STIP3-29 [4]: 4 fold
2 | AVGGLVKWILDTVKKFA [T1A, AVGGLVKWILDTVKKFA] | 12.5 µg/mL | observed to inhibit S. aureus | 200 µg/mL | 50 µg/mL |  | 
3 | TVAGLVKWILDTVKKFA [G3A, TVAGLVKWILDTVKKFA] | 50 µg/mL | observed to inhibit S. aureus | >^b (> = >200 μg/mL (maximum concentration tested)) | 100 µg/mL | >^b (the use of > indicates an MIC > 200 μg/mL; the maximum concentration tested) | 
4 | TVGALVKWILDTVKKFA [G4A, TVGALVKWILDTVKKFA] | 12.5 µg/mL | observed to inhibit S. aureus | >^b (> = >200 μg/mL (maximum concentration tested)) | 50 µg/mL | >^b (the use of > indicates an MIC > 200 μg/mL; the maximum concentration tested) | 
5 | TVGGLVKWILATVKKFA [STIP3-2, TVGGLVKWILATVKKFA] | 3.13 µg/mL | observed to inhibit S. aureus | 100 µg/mL | 50 µg/mL |  | α helicity (%) [1]: 50%; MIC (μg/mL) Candida krusei AR 397 (Candida krusei AR 397): 50 µg/mL; MIC (μg/mL) Kodamae ohmeri AR 396 (Kodamae ohmeri AR 396): 100 µg/mL; MIC (μg/mL) Candida duobushaemulonii AR 392 [7]: > (MIC values reported at the top of the table (above the double line) are based on titrations from 1.56 to 100 μg/mL); MIC (μg/mL) Saccharomyces cerevisiae AR 400 [8]: 100 µg/mL; MIC (μg/mL) Saccharomyces cerevisiae AR 399 [9]: 50 µg/mL; MIC S. aureus ATCC 33592 (III) [2]: 50 µg/mL; MIC S. aureus ATCC BAA 42 (VI) [10]: 50 µg/mL; MIC S. aureus ATCC 29213 (S. aureus ATCC 29213 [3]): 100 µg/mL; MIC S. aureus ATCC BAA 1683 (IV) [11]: 50 µg/mL; MIC S. aureus ATCC BAA 2313 (XI) [12]: 50 µg/mL; MIC S. aureus ATCC BAA 2094 (V) [13]: 50 µg/mL; MIC S. aureus ATCC BAA 41 (II) [14]: 100 µg/mL; MIC S. aureus ATCC BAA 44 (I) [15]: 100 µg/mL; MIC C. albicans MYA-2876 (C. albicans MYA-2876): 100 µg/mL; MIC (μg/mL) M. haemolytica ([6]; Table 11, highest concentration 25 μg/mL): 25 µg/mL
6 | TVGGLVKWILDAVKKFA [T12A, TVGGLVKWILDAVKKFA] | 12.5 µg/mL | observed to inhibit S. aureus | 100 µg/mL | 50 µg/mL |  | 
7 | TVGGLVKWILDTVAKFA [K14A, TVGGLVKWILDTVAKFA] | 12.5 µg/mL | observed to inhibit S. aureus | >^b (> = >200 μg/mL (maximum concentration tested)) | 100 µg/mL | >^b (the use of > indicates an MIC > 200 μg/mL; the maximum concentration tested) | 
8 | TVGGLVKWILDTVKAFA [K15A, TVGGLVKWILDTVKAFA] | 25 µg/mL | observed to inhibit S. aureus | >^b (> = >200 μg/mL (maximum concentration tested)) | 50 µg/mL | >^b (the use of > indicates an MIC > 200 μg/mL; the maximum concentration tested) | 
